Test results from patent US10065970B2 (Genentech, Inc., priority 2015, dated 2018).
Like-named read-outs stand apart in the source and are kept apart here.

Biological target: PI3Kα (alpha) (Homo sapiens (Human), UniProt P42336)
Assay: p110α (alpha) PI3K Binding Assay (ADP-Glo lipid kinase reaction)
Type: biochemical
Conditions: read-out: PI3Kα-(alpha) ATP (Ki) micromolar
Method in brief: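 Enzyme with PIP2:3PS lipid substrate and ATP/MgCl2 in 50 mM HEPES, 50 mM NaCl, 3 mM MgCl2, 0.01% BSA, 1% DMSO, 120 min at room temperature. ADP formed detected by ADP-Glo luminescence. Ki from 10-point dose-response curves via the Morrison equation.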

[1] = PI3K alpha 0.2 nM, ATP 40 μM, PIP2:3PS 50 μM, 120 min, room temperature, Ki by Morrison Equation

PI3Kα (alpha), sequence (P42336 whole entry): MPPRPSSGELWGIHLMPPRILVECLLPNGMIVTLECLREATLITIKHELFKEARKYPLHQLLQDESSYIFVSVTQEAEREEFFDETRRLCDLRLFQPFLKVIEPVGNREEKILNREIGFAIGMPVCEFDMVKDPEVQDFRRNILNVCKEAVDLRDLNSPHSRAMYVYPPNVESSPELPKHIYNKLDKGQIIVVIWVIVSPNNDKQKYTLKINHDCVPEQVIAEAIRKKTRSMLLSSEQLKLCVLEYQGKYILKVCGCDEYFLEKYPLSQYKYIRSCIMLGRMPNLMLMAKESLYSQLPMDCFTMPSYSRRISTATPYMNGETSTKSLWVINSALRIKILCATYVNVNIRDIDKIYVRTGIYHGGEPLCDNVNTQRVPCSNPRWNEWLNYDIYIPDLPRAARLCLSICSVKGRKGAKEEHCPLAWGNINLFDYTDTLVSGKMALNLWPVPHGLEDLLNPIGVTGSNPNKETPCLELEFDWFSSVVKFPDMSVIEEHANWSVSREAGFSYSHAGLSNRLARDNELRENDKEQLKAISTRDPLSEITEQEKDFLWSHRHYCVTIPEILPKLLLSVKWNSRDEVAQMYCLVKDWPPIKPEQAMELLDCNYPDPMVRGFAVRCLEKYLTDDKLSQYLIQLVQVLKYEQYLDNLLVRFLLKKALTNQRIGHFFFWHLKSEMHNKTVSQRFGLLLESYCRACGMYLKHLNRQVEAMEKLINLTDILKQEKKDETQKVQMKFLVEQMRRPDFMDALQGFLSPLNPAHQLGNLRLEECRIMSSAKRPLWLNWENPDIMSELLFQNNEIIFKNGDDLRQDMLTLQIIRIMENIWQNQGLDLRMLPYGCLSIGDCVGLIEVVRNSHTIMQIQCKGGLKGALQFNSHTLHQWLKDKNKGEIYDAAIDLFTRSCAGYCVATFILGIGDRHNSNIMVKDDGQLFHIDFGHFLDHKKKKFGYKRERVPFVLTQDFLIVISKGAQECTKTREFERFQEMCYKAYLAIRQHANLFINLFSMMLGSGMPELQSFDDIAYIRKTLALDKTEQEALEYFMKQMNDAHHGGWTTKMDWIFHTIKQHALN
PI3Kα (alpha), sequence (P27986 whole entry partner): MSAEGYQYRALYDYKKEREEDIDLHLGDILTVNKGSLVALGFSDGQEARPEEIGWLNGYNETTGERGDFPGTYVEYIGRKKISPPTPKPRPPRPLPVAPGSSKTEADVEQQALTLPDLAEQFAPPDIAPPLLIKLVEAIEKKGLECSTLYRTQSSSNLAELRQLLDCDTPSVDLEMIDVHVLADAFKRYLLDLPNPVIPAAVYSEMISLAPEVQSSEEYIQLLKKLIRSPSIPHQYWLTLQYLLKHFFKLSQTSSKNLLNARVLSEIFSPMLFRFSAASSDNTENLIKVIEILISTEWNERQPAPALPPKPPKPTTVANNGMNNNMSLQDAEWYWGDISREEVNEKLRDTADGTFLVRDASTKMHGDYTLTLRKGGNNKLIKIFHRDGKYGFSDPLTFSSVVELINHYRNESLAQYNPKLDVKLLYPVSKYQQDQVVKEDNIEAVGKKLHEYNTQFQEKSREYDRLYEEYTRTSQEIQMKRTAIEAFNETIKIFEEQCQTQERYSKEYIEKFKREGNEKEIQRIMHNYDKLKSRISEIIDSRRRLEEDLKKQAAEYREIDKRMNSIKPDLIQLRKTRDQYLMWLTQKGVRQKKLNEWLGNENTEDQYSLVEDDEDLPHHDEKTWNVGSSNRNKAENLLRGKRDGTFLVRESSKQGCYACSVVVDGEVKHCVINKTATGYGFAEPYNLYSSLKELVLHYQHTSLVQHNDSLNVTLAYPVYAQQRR

NC(=O)[C@@H](Nc1cc2c3c(c1)nc(-c1cc(C(F)(F)F)c4oc(N)nc4c1)n3CCCO2)C1CC1 [Example 235, (S)-2-((1-(2-Amino-7-(trifluoromethyl)benzo[d]oxazol-5-yl)-8,9-dihydro-7H-6-oxa-2,9a-diazabenzo[cd]azulen-4-yl)amino)-2-cyclopropylacetamide]
Ki [1]: 0.209 nM

COc1ccc(CNC(=O)[C@@H]2CCCN2c2cc3c4c(c2)nc(-c2ccc5oc(N)nc5c2)n4CCCO3)cc1 [Example 236, (S)-1-(1-(2-Aminobenzo[d]oxazol-5-yl)-8,9-dihydro-7H-6-oxa-2,9a-diazabenzo[cd]azulen-4-yl)-N-(4-methoxybenzyl)pyrrolidine-2-carb oxamide]
Ki [1]: 21 nM

NC(=O)[C@@H]1CCCN1c1cc2c3c(c1)nc(-c1ccc4c(=O)[nH]oc4c1)n3CCCO2 [Example 237, (S)-1-(1-(3-Oxo-2,3-dihydrobenzo[d]isoxazol-6-yl)-8,9-dihydro-7H-6-oxa-2,9a-diazabenzo[cd]azulen-4-yl)pyrrolidine-2-carb oxamide]
Ki [1]: 137 nM

C[C@@H]1Cn2c(-c3ccc4oc(N)nc4c3)nc3cc(N[C@H](C(N)=O)C4CC4)cc(c32)O1 [Example 238, (S)-2-(((R)-2-(2-Aminobenzo[d]oxazol-5-yl)-4-methyl-3,4-dihydro-5-oxa-1,2a-diazaacenaphthylen-7-yl)amino)-2-cyclopropylacetamide]
Ki [1]: 0.045 nM

C[C@H](Oc1cc2c3c(nc(-c4ccc5oc(N)nc5c4)n3CCCO2)c1F)C(N)=O [Example 240, (S)-2-((1-(2-Aminobenzo[d]oxazol-5-yl)-3-fluoro-8,9-dihydro-7H-6-oxa-2,9a-diazabenzo[cd]azulen-4-yl)oxy)propanamide]
Ki [1]: 1.61 nM

C[C@H](Oc1cc2c3c(c1)nc(-c1ccc4oc(N)nc4c1F)n3CCCCO2)C(N)=O [Example 241, (S)-2-((1-(2-Amino-4-fluorobenzo[d]oxazol-5-yl)-7,8,9,10-tetrahydro-6-oxa-2,10a-diazacycloocta[cd]inden-4-yl)oxy)propanamide]
Ki [1]: < 0.02 nM

C[C@H](Oc1cc2c3c(c1)nc(-c1cc(F)c4nc(N)sc4c1)n3CCCCO2)C(N)=O [Example 242, (S)-2-((1-(2-Amino-4-fluorobenzo[d]thiazol-6-yl)-7,8,9,10-tetrahydro-6-oxa-2,10a-diazacycloocta[cd]inden-4-yl)oxy)propanamide]
Ki [1]: < 0.02 nM

C[C@H](Oc1cc2c3c(c1)nc(-c1ccc(-c4nc[nH]n4)cc1)n3CCCCO2)C(N)=O [Example 243, (S)-2-((1-(4-(1H-1,2,4-Triazol-3-yl)phenyl)-7,8,9,10-tetrahydro-6-oxa-2,10a-diazacycloocta[cd]inden-4-yl)oxy)propanamide]
Ki [1]: < 0.02 nM

C[C@H](Oc1cc2c3c(c1)nc(-c1ccc4nc(N)cnc4c1)n3CCCCO2)C(N)=O [Example 244, (S)-2-((1-(2-Aminoquinoxalin-6-yl)-7,8,9,10-tetrahydro-6-oxa-2,10a-diazacycloocta[cd]inden-4-yl)oxy)propanamide]
Ki [1]: < 0.02 nM

C[C@@H](Oc1cc2c3c(c1)nc(-c1ccc4oc(N)nc4c1)n3CCCCO2)C(N)=O [Example 245, (R)-2-((1-(2-Aminobenzo[d]oxazol-5-yl)-7,8,9,10-tetrahydro-6-oxa-2,10a-diazacycloocta[cd]inden-4-yl)oxy)propanamide]
Ki [1]: 0.032 nM

NC(=O)[C@@H](Nc1cc2c3c(c1)nc(-c1ccc4sc(N)nc4c1)n3CCCCO2)C1CC1 [Example 246, (S)-2-((1-(2-Aminobenzo[d]thiazol-5-yl)-7,8,9,10-tetrahydro-6-oxa-2,10a-diazacycloocta[cd]inden-4-yl)amino)-2-cyclopropylacetamide]
Ki [1]: < 0.02 nM

NC(=O)[C@@H]1CCCN1c1cc2c3c(nc(-c4ccc5oc(N)nc5c4)n3CCCCO2)c1F [Example 247, (S)-1-(1-(2-Aminobenzo[d]oxazol-5-yl)-3-fluoro-7,8,9,10-tetrahydro-6-oxa-2,10a-diazacycloocta[cd]inden-4-yl)pyrrolidine-2-carboxamide]
Ki: 0.024 nM

C[C@H](Oc1cc2c3c(c1)nc(-c1ccc4nc(N)sc4c1)n3CCCCO2)C(N)=O [Example 248, (S)-2-((1-(2-Aminobenzo[d]thiazol-6-yl)-7,8,9,10-tetrahydro-6-oxa-2,10a-diazacycloocta[cd]inden-4-yl)oxy)propanamide]
Ki [1]: 0.03 nM

C[C@H](Oc1cc2c3c(c1)nc(-c1cc(F)c4oc(N)nc4c1)n3CCCCO2)C(N)=O [Example 249, (S)-2-((1-(2-Amino-7-fluorobenzo[d]oxazol-5-yl)-7,8,9,10-tetrahydro-6-oxa-2,10a-diazacycloocta[cd]inden-4-yl)oxy)propanamide]
Ki [1]: < 0.02 nM

NC(=O)[C@@H]1CCCN1c1cc2c3c(c1)nc(-c1ccc4oc(N)nc4c1)n3CCCCO2 [Example 250, (S)-1-(1-(2-Aminobenzo[d]oxazol-5-yl)-7,8,9,10-tetrahydro-6-oxa-2,10a-diazacycloocta[cd]inden-4-yl)pyrrolidine-2-carboxamide]
Ki [1]: < 0.02 nM

C[C@@H]1Cn2c(-c3ccc4oc(N)nc4c3)nc3cc(O[C@H](C)C(N)=O)cc(c32)O1 [Example 251, (R)-2-(((R)-2-(2-Aminobenzo[d]oxazol-5-yl)-4-methyl-3,4-dihydro-5-oxa-1,2a-diazaacenaphthylen-7-yl)oxy)propanamide]
Ki [1]: 2.27 nM

C[C@@H]1Cn2c(-c3ccc4oc(N)nc4c3)nc3cc(O[C@@H](C)C(N)=O)cc(c32)O1 [Example 252, (S)-2-(((R)-2-(2-Aminobenzo[d]oxazol-5-yl)-4-methyl-3,4-dihydro-5-oxa-1,2a-diazaacenaphthylen-7-yl)oxy)propanamide]
Ki [1]: 0.221 nM

Nc1nc2cc(-n3nc4cc(Br)cc5c4c3CCCO5)ccc2o1 [Example 253, 5-(4-Bromo-8,9-dihydrooxepino[4,3,2-cd]indazol-1(7H)-yl)benzo[d]oxazol-2-amine]
Ki [1]: 50.8 nM

C[C@@H](C(N)=O)N(C)c1cc2c3c(c1)nc(-c1ccc4oc(N)nc4c1)n3CCCCO2 [Example 254, (S)-2-((1-(2-Aminobenzo[d]oxazol-5-yl)-7,8,9,10-tetrahydro-6-oxa-2,10a-diazacycloocta[cd]inden-4-yl)(methyl)amino)propanamide]
Ki [1]: < 0.02 nM

C[C@@H](C(N)=O)N(C)c1cc2c3c(c1)nc(-c1ccc4nc(N)sc4c1)n3CCCCO2 [Example 255, (S)-2-((1-(2-Aminobenzo[d]thiazol-6-yl)-7,8,9,10-tetrahydro-6-oxa-2,10a-diazacycloocta[cd]inden-4-yl)(methyl)amino)propanamide]
Ki [1]: 0.149 nM

C[C@H](Oc1cc2c3c(c1)nc(-c1cc(F)c4oc(N)nc4c1)n3CCCO2)C(N)=O [Example 258, (S)-2-((1-(2-Amino-7-fluorobenzo[d]oxazol-5-yl)-8,9-dihydro-7H-6-oxa-2,9a-diazabenzo[cd]azulen-4-yl)oxy)propanamide]
Ki [1]: 0.09 nM

C[C@H](Oc1cc2c3c(c1)nc(-c1cc(F)c4oc(N)nc4c1F)n3CCCCO2)C(N)=O [Example 261, (S)-2-((1-(2-Amino-4,7-difluorobenzo[d]oxazol-5-yl)-7,8,9,10-tetrahydro-6-oxa-2,10a-diazacycloocta[cd]inden-4-yl)oxy)propanamide]
Ki [1]: < 0.02 nM

NC(=O)[C@@H]1COCCN1c1cc2c3c(c1)nc(-c1ccc4nc(N)sc4c1)n3CCCCO2 [Example 262, (S)-4-(1-(2-Aminobenzo[d]thiazol-6-yl)-7,8,9,10-tetrahydro-6-oxa-2,10a-diazacycloocta[cd]inden-4-yl)morpholine-3-carboxamide]
Ki [1]: 1.95 nM
